According to the NIST ThermoML archive (doi:10.1016/j.fluid.2016.09.021):

Details: Liquid, Vibrating tube method

CCCCCCC [heptane]
mass density [kg/m3]
Details	433 K	448 K	468 K
2100 kPa	–	531.1	501.1
3000 kPa	–	535.6	507.8
4000 kPa	–	539.8	513.4
5000 kPa	–	543.6	518.6
10000 kPa	–	560	539.1
20000 kPa	–	583	566.5
30000 kPa	–	600.3	586.2
40000 kPa	–	614.4	601.3
49900 kPa	–	626.2	614.2
59900 kPa	644.7	636.6	625.3
69900 kPa	653.5	646.2	635.2
79900 kPa	661.6	654.4	644.1
89900 kPa	669	661.8	652.3
99900 kPa	676	669.2	659.9
109900 kPa	682.3	675.8	667.2
119900 kPa	688.5	682.3	673.9
129900 kPa	694.3	688.4	679.9
134900 kPa	697.2	691.4	682.8
137400 kPa	698.6	692.6	684.3
